Test results as given in patent publication US20230158151A1 (NURIX THERAPEUTICS, INC., priority 2021, published 2023).

Biological target: T1, ITK (Mus musculus, UniProt Q03526)
T1 construct: administered to mice orally; from tissue; host or cells: mouse splenocytes (spleen) after oral dosing
T1 sequence (Q03526 1-625): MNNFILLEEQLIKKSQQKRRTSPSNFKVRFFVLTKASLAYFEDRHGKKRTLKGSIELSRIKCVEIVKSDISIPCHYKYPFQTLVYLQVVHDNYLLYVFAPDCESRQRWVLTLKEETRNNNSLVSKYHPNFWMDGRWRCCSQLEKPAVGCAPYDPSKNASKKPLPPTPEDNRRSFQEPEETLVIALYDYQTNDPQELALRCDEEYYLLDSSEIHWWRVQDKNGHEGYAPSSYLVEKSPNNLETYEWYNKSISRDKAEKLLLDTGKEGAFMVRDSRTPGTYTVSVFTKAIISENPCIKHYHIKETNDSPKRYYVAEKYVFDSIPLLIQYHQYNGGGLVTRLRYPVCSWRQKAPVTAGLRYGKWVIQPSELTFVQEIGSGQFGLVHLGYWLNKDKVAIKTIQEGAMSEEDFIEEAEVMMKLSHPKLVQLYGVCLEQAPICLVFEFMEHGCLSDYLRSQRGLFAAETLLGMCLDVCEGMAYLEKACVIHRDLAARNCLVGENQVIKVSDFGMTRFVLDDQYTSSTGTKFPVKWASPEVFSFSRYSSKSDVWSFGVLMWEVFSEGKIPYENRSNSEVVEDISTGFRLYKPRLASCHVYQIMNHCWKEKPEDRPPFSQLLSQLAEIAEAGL
Assay: Western Assay for ITK Degradation in Mouse Splenocytes after oral administration
Type: in vivo
Conditions: for ITK degradation in vivo by Western blotting: mouse splenocytes, oral
Experimental: Compounds 30 and 31 were administered to mice orally. After 6 hours, splenocytes cells were harvested. ITK was evaluated by Western blotting. Media was removed and cell pellets were lysed in 100 μL lysis buffer (RIPA buffer (Fisher, PI89901), cOmplete Mini EDTA-free protease inhibitor (Sigma 11836170001), Protease Inhibitor Cocktail (Sigma, P2714), Phosphatase Inhibitor Cocktail 2 and 3 (Sigma, P5726 and P0044), Benzonase (Sigma, E1014)). Cells were lysed overnight at −20° C. Following thaw, cells were centrifuged for 10 min at 13000 rpm, then transferred to new tube. Protein levels were determined by BCA Assay performed according to manufacturer's protocol (EMD Millipore, cat. no. 71285-3). Samples were combined with (4×) LDS Sample Buffer and (10×) Reducing Agent and H2O to equally load 20 μg protein per lane of a 26-well NuPAGE 4-12% Bis-Tris protein gel (1.0 mm, Thermo cat. no. NP0326). Samples were separated by running gels at constant 150 V in NuPAGE MES SDS Running Buffer. Following electrophoresis, proteins were transferred to nitrocellulose membranes using an iBlot Gel Transfer Device and iBlot Gel Transfer Stacks (Thermo cat. no. IB21001 and IB301001) and transfer method P3 (20V for 7 min). Membranes were blocked for 1 hr in 5% milk solution (TBS (0.2% Tween-20)). Following blocking, membranes were incubated with primary antibody (1:1000 CST ITK (2F12) #2380) overnight at 4° C. with gentle shaking. Blots were washed 2× in TBS (0.2% Tween-20), 30 min per wash. Following washes, blots were incubated in secondary HRP-conjugated antibody (Promega anti-Mouse IgG (H+L) HRP cat. no. W4021), 1:5000 in 5% milk solution (TBS (0.2% Tween-20)), for 1 hr at room temperature with gentle shaking. Blots were washed 2× in TBS (0.2% Tween-20), 30 min per wash. Blots were incubated with 1:1 mix of ECL reagents 1 & 2 (Amersham ECL Western Blotting Detection Reagent, cat. no. RPN2106) for 2 min at room temperature. Bands were visualized using a Protein Simple imager. Blots were then re-probed with a combination of anti-actin antibody (Sigma Monoclonal Mouse Anti-β-Actin (clone AC-15), cat. no. A5441) and secondary HRP-conjugated antibody (Promega anti-Mouse IgG (H+L) HRP, cat. no. W4021) and similar steps were taken for incubation, wash, detection and visualization steps as above. The data was analyzed using Alpha View software. The densitometric reading for each sample band was normalized to that of the corresponding actin band per lane. Approximate % ITK remaining per sample was calculated as follows: […]
Once % ITK remaining has been calculated for each sample, groups are averaged together to show an means % ITK normalized to actin and relative to control.
Compounds 30 and 29 were administered to mice orally. After 6 hours or 24 hours, splenocytes cells were harvested. ITK was evaluated by Western blotting. Plasma concentrations were determined by LC/MS/MS. Plasma samples were protein precipitated by addition of 100 μl of acetonitrile containing 50 ng/ml of internal standard. The resulting mixture was vortexed and centrifuged at 4000 RPM for 5 minutes. An aliquot of the resultant supernatant (75 μl) was added to 75 μl of 0.1% formic acid in water to constitute the final sample for injection. Samples were injected on a Shimadzu Exion LC Binary Gradient AD Pump HLPC system connected to a Sciex QTRAP 6500+ mass spectrometer. Five μl of sample was injected onto a Waters Acquity UPLC BEH C18 column 130A (2.1×30 mm, […]) at 40° C. utilizing a flow rate of 700 μl/minute. Mobile Phase A was 0.1% formic acid in water and mobile phase B was 0.1% formic acid in acetonitrile. A linear gradient of 15-95% B over 1.0 minute was used. The mass spectrometer was operated in positive ion electrospray mode with multiple reaction monitoring for maximum sensitivity. Sciex Analyst software (version 1.6.3) was used for LC/MS/MS instrument control and acquisition. […]

[1] = % ITK remaining in mouse splenocytes, 90 mpk PO
[2] = % ITK remaining in mouse splenocytes, 24 h

Structure (SMILES)	ITK (%) 90 mpk PO, 6 h [1]	other results
CC1(C)CCc2c(-c3cc4ccc(C(=O)N5CCN(CC6CCN(c7ccc(C8CCC(=O)NC8=O)cn7)CC6)CC5)cc4[nH]3)n[nH]c2C1 (centres unmarked) [Compound 26, 3-(6-(4-((4-(2-(6,6-dimethyl-4,5,6,7-tetrahydro-1H-indazol-3-yl)-1H-indole-6-carbonyl)piperazin-1-yl)methyl)piperidin-1-yl)pyridin-3-yl)piperidine-2,6-dione]	11%	
C[C@@H](C(=O)N(C)c1ccc2cc(-c3n[nH]c4c3CCC(C)(C)C4)[nH]c2c1)N1CCN(CC2CCN(c3ccc(C4CCC(=O)NC4=O)cn3)CC2)CC1 (stereo partly drawn) [Compound 32, (2S)—N-(2-(6,6-dimethyl-4,5,6,7-tetrahydro-1H-indazol-3-yl)-1H-indol-6-yl)-2-(4-((1-(5-(2,6-dioxopiperidin-3-yl)pyridin-2-yl)piperidin-4-yl)methyl)piperazin-1-yl)-N-methylpropanamide]	11%	
C[C@@]12Cc3[nH]nc(C(=O)Nc4cnn(CC5CN(C(=O)C6CCN(c7ccc(C8CCC(=O)NC8=O)cn7)CC6)C5)c4)c3C[C@@H]1C2(F)F (stereo partly drawn) [Compound 22, (4aS,5aR)—N-(1-((1-(1-(5-(2,6-dioxopiperidin-3-yl)pyridin-2-yl)piperidine-4-carbonyl)azetidin-3-yl)methyl)-1H-pyrazol-4-yl)-5,5-difluoro-5a-methyl-1,4,4a,5,5a,6-hexahydrocyclopropa[f]indazole-3-carboxamide]	113%	
CC1(C)CCc2c(-c3cc4ccc(C(=O)N5CCC(CN6CCC(c7ccc(C8CCC(=O)NC8=O)cc7)CC6)CC5)cc4[nH]3)n[nH]c2C1 (centres unmarked) [Compound 39, 3-(4-(1-((1-(2-(6,6-dimethyl-4,5,6,7-tetrahydro-1H-indazol-3-yl)-1H-indole-6-carbonyl)piperidin-4-yl)methyl)piperidin-4-yl)phenyl)piperidine-2,6-dione]		ITK (%) 60 mpk PO, 24 h [2]: 93%
CC1(C)CCc2c(-c3cc4ccc(C(=O)N5CCC(CN6CCN(c7ccc(C8CCC(=O)NC8=O)cc7)CC6)CC5)cc4[nH]3)n[nH]c2C1 (centres unmarked) [Compound 37, 3-(4-(4-((1-(2-(6,6-dimethyl-4,5,6,7-tetrahydro-1H-indazol-3-yl)-1H-indole-6-carbonyl)piperidin-4-yl)methyl)piperazin-1-yl)phenyl)piperidine-2,6-dione]		ITK (%) 60 mpk PO, 24 h [2]: >100%
CC1(C)CCc2c(-c3cc4ccc(N5CCC6(CCN(CC7CCN(c8ccc(C9CCC(=O)NC9=O)cn8)CC7)CC6)C5=O)cc4[nH]3)n[nH]c2C1 (centres unmarked) [Compound 24, 3-(6-(4-((2-(2-(6,6-dimethyl-4,5,6,7-tetrahydro-1H-indazol-3-yl)-1H-indol-6-yl)-1-oxo-2,8-diazaspiro[4.5]decan-8-yl)methyl)piperidin-1-yl)pyridin-3-yl)piperidine-2,6-dione]	45%	
CC1(C)CCc2c(-c3cc4ccc(C(=O)N5CCN(CC6CCN(c7ccc(C8CCC(=O)NC8=O)cc7)CC6)CC5)cc4[nH]3)n[nH]c2C1 (centres unmarked) [Compound 38, 3-(4-(4-((4-(2-(6,6-dimethyl-4,5,6,7-tetrahydro-1H-indazol-3-yl)-1H-indole-6-carbonyl)piperazin-1-yl)methyl)piperidin-1-yl)phenyl)piperidine-2,6-dione]	14%	ITK (%) 90 mpk PO, 24 h (% ITK remaining in mouse splenocytes, 90 mpk PO, 24 h): 14%
C[C@@H](C(=O)N(C)c1ccc2cc(-c3n[nH]c4c3CCC(C)(C)C4)[nH]c2c1)N1CCN(CC2CCN(c3ccc(N4CCC(=O)NC4=O)cn3)CC2)CC1 [Compound 31, (S)—N-(2-(6,6-dimethyl-4,5,6,7-tetrahydro-1H-indazol-3-yl)-1H-indol-6-yl)-2-(4-((1-(5-(2,4-dioxotetrahydropyrimidin-1(2H)-yl)pyridin-2-yl)piperidin-4-yl)methyl)piperazin-1-yl)-N-methylpropanamide]	116%	ITK degradation in vivo by Western blotting (6 hours): degraded ITK in vivo; ITK degradation in vivo by Western blotting (24 hours): degraded ITK in vivo

The next lines start with results.

ITK (%) 90 mpk PO, 6 h [1]	Structure (SMILES)	other results
129%	C[C@@]12Cc3[nH]nc(C(=O)Nc4cnn(CC5CN(C(=O)C6CN(c7ccc(C8CCC(=O)NC8=O)cn7)C6)C5)c4)c3C[C@@H]1C2(F)F (stereo partly drawn) [Compound 23, (4aS,5aR)—N-(1-((1-(1-(5-(2,6-dioxopiperidin-3-yl)pyridin-2-yl)azetidine-3-carbonyl)azetidin-3-yl)methyl)-1H-pyrazol-4-yl)-5,5-difluoro-5a-methyl-1,4,4a,5,5a,6-hexahydrocyclopropa[f]indazole-3-carboxamide]	
14%	C[C@@H](C(=O)N(C)c1ccc2cc(-c3n[nH]c4c3C[C@@H]3C(F)(F)[C@]3(C)C4)[nH]c2c1)N1CCN(CC2CCN(c3ccc(N4CCC(=O)NC4=O)cn3)CC2)CC1 [Compound 29, (S)—N-(2-((4aS,5aR)-5,5-difluoro-5a-methyl-1,4,4a,5,5a,6-hexahydrocyclopropa[f]indazol-3-yl)-1H-indol-6-yl)-2-(4-((1-(5-(2,4-dioxotetrahydropyrimidin-1(2H)-yl)pyridin-2-yl)piperidin-4-yl)methyl)piperazin-1-yl)-N-methylpropanamide]	ITK degradation in vivo by Western blotting (6 hours): degraded ITK in vivo; ITK degradation in vivo by Western blotting (24 hours): degraded ITK
76%	CN(C(=O)CCC1CCN(c2ccc(C3CCC(=O)NC3=O)cn2)CC1)c1ccc2cc(-c3n[nH]c4c3C[C@@H]3C(F)(F)[C@]3(C)C4)[nH]c2c1 (stereo partly drawn) [Compound 4, N-(2-((4aS,5aR)-5,5-difluoro-5a-methyl-1,4,4a,5,5a,6-hexahydrocyclopropa[f]indazol-3-yl)-1H-indol-6-yl)-3-(1-(5-(2,6-dioxopiperidin-3-yl)pyridin-2-yl)piperidin-4-yl)-N-methylpropanamide]	
92%	CN(C(=O)CC1CCN(CC2CCN(c3ccc(C4CCC(=O)NC4=O)cn3)CC2)CC1)c1ccc2cc(-c3n[nH]c4c3C[C@@H]3C(F)(F)[C@]3(C)C4)[nH]c2c1 (stereo partly drawn) [Compound 6, N-(2-((4aS,5aR)-5,5-difluoro-5a-methyl-1,4,4a,5,5a,6-hexahydrocyclopropa[f]indazol-3-yl)-1H-indol-6-yl)-2-(1-((1-(5-(2,6-dioxopiperidin-3-yl)pyridin-2-yl)piperidin-4-yl)methyl)piperidin-4-yl)-N-methylacetamide]	
